# Measured values reported in patent publication US20100204129A1, “USE OF A PEPTIDE AS A THERAPEUTIC AGENT” (priority 2008, published 2010).
# Non-standard residues stand in square brackets, D forms with d. Residues, ends and D or L forms follow the SMILES beside them.
# System: drug-resistant Mycobacterium tuberculosis
# Conditions: 5 micrograms per ml
smiles,measurement,value
"CC(C)C[C@H](NC(=O)[C@H](CC(C)C)NC(=O)[C@@H](Cc1c[nH]c2ccccc12)NC(=O)[C@H](Cc1ccccc1)NC(=O)[C@@H](Cc1c[nH]c2ccccc12)NC(=O)[C@H](CCC(N)=O)NC(=O)[C@H](CCC(N)=O)NC(=O)[C@@H]1CCCN1C(=O)[C@H](CCCCN)NC(=O)[C@@H]1CCCN1C(=O)[C@@H](CCCNC(=N)N)NC(=O)[C@@H]1CCCN1C(=O)CNC(=O)[C@H](CC(C)C)NC(=O)[C@H](CC(C)C)NC(=O)[C@H](Cc1ccc(O)cc1)NC(=O)CNC(=O)[C@H](C)NC(=O)[C@H](CO)NC(=O)[C@H](CC(N)=O)NC(=O)[C@H](CC(C)C)NC(=O)[C@@H](NC(=O)[C@H](Cc1c[nH]c2ccccc12)NC(=O)CN)[C@@H](C)O)C(N)=O [Spantide-I, Gly-Trp-Thr-Leu-Asn-Ser-Ala-Gly-Tyr-Leu-Leu-Gly-Pro-D-Arg-Pro-Lys-Pro-Gln-Gln-D-Trp-Phe-D-Trp-Leu-Leu-NH2] (H-GWTLNSAGYLLGP[dR]PKPQQ[dW]F[dW]LL-NH2)",% inhibition,100.0%
